Test system: male Sprague-Dawley rats
Experiment: In-vivo peritoneal dialysis in rats: fluid volume recovered from the peritoneum
Design: species or system rat
Procedure: The peritoneal dialysis experiment was conducted in male Sprague-Dawley rats weighing 500-600 g (Charles River) maintained on a standard diet with water ad libitum. The animals were anaesthetized with an intraperitoneal injection of inactin (100 mg/kg) and were placed on an operating table at controlled temperature. The animals were submitted to a tracheostomy to cannulate the left jugular vein with a PESO medical silicone tube. Thirty minutes after administration of the anaesthetic the animals were infused with a saline solution at a rate of 2.3 ml/h throughout the period of the experiment. The dialysis solution (15 ml), after preheating to 37° C., was inoculated into the peritoneal cavity with a 15 teflon needle-cannula 1 h after administration of the anaesthetic. The amount of fluid injected was determined by weighing the syringe before and after injection of the fluid, using an electronic scale. At the end of each analysis period (2, 4 and 6 h), incisions were made in the rats' abdomens with an acusector and all the fluid present in the peritoneum was aspirated with a 1 ml syringe. After removing the surface fluid, the intestines were carefully shifted from the abdominal cavity to collect the residual fluid remaining on the dorsal wall. The fluid recovered was placed in a beaker and weighed. […]

Q: What does the source list for `C[N+](C)(C)C[C@H](O)CC(=O)[O-]` [Carnitine, L-carnitine]?
A: Quality as osmotic agent compared with glucose (rat peritoneal dialysis, 1.5-4.25%): at least as good as glucose; Time by which the increase in intraperitoneal fluid volume is completed / peak activity reached (rat, all concentrations used (1.5, 2.5, 4.25%)): ≤ 2 h

From patent publication US7932291B2, “Use of L-carnitine and its alkanoyl derivatives as osmotic agents in solutions for medical use” (Sigma-Tau Industrie Farmaceutiche Riunite S.p.A., priority 1999, dated 2011)
